Test results: patent US11447460B2, “Compounds and compositions for treating conditions associated with NLRP activity” (Novartis AG, priority 2016, dated 2022)
Where two headings read alike, the source gives them in different places.

Tested on: IL-1β production in PMA-differentiated THP-1 cells
Test: IL-1β production in PMA-differentiated THP-1 cells stimulated with gramicidin (hTHP-1 assay, 2% bovine serum; Bioassays 1 and 2)
Format: cell-based, human
Conditions: hTHP-1 assay containing 2% bovine serum, read-out: Average IC50 of compounds in hTHP-1 assay
Method: IL-1β Production in PMA-Differentiated THP-1 Cells Stimulated with Gramicidin.
Cell culture-THP-1 cells were purchased from the American Type Culture Collection and sub-cultured according to instructions from the supplier. Prior to experiments, cells were cultured in RPMI 1640 containing 10% heat inactivated FBS, penicillin (100 units/ml) and streptomycin (100 μg/ml), and maintained in log phase prior to experimental setup. Prior to the experiment THP-1 were treated with PMA (Phorbol 12-myristate 13-acetate) (10 μg/ml) for 24 hours. The day of the experiment the media was removed and attaching cells were treated with trypsin for 2 minutes, cells were then collected, washed with PBS (phosphate buffer saline), spin down, resuspended in 2% heat inactivated FBS with RPMI at a concentration of 1×10^6 cells/ml, and 100 ul was plated in a 96 well plate. Cells were incubated with compounds for 1 hours and then stimulated with Gramicidin (5 μM) (Enzo) for 2 hours. Cell free supernatant was collected and the production of IL-1β was evaluated by ELISA. Compounds were dissolved in dimethyl sulfoxide (DMSO) and added to the culture medium to achieve desired concentration (e.g. 100, 30, 10, 3, 1, 0.3 or 0.1 μM). A vehicle only control was run concurrently with each experiment. Final DMSO concentration was 1%.
THP-1 cells were purchased from the American Type Culture Collection and sub-cultured according to instructions from the supplier. Prior to experiments, cells were cultured in complete RPMI 1640 (containing 10% heat inactivated FBS, penicillin (100 units/ml) and streptomycin (100 μg/ml)), and maintained in log phase prior to experimental setup. Prior to the experiment THP-1 were treated with PMA (Phorbol 12-myristate 13-acetate) (20 ng/ml) for 16-18 hours. On the day of the experiment the media was removed and adherent cells were detached with trypsin for 5 minutes. Cells were then harvested, washed with complete RPMI 1640, spun down, resuspended in RPMI 1640 (containing 2% heat inactivated FBS, penicillin (100 units/ml) and streptomycin (100 μg/ml). The cells were plated in a 384-well plate at a density of 50,000 cells/well (final assay volume 50 μl). Compounds were dissolved in dimethyl sulfoxide (DMSO) and added to the culture medium to achieve desired concentration (e.g. 100, 33, 11, 3.7, 1.2, 0.41, 0.14, 0.046, 0.015, 0.0051, 0.0017 μM). Cells were incubated with compounds for 1 hour and then stimulated with gramicidin (5 μM) (Enzo) for 2 hours. Cell free supernatant was collected and the production of IL-10 was evaluated by HTRF (cisbio). A vehicle only control was run concurrently with each experiment. Final DMSO concentration was 0.38%.
Compounds tested with protocols 1 and 2 provided IC50 values that are within the variability of the assay.
Tables 12 and 13 show the biological activity of compounds in hTHP-1 assay containing 2% bovine serum: <1 μM=“++++”; ≥1 and <5 μM=“+++”; ≥5 and <15 μM=“++”; ≥15 and <60 μM=“+”.

[1] = Homo sapiens, THP-1, Table 12, by Example #
[2] = Homo sapiens, THP-1, Table 13, by Final Target Number

Row | IC50 [1] [µM] | Structure (SMILES) | also measured
1 | 1 to 5 | CC(C)c1cc(F)cc(C(C)C)c1CC(=O)NS(=O)(=O)c1cc(Cl)cc(C(C)(C)O)c1 [Example 27, N-(3-chloro-5-(2-hydroxypropan-2-yl)phenylsulfonyl)-2-(4-fluoro-2,6-diisopropylphenyl)acetamide] | 
2 | 5 to 15 | CC(C)c1cc(F)cc(C(C)C)c1CC(=O)NS(=O)(=O)c1cc(F)cc(C(C)(C)O)c1 [Example 51, 2-(4-fluoro-2,6-diisopropylphenyl)-N-(3-fluoro-5-(2-hydroxypropan-2-yl)phenylsulfonyl)acetamide] | 
3 | 1 to 5 | CC(C)c1cc(F)cc(C(C)C)c1CC(=O)NS(=O)(=O)c1cccc(C(C)(C)O)c1F [Example 50, 2-(4-fluoro-2,6-diisopropylphenyl)-N-(2-fluoro-3-(2-hydroxypropan-2-yl)phenylsulfonyl)acetamide] | 
4 | < 1 | CC(C)c1cc(F)cc(C(C)C)c1CC(=O)NS(=O)(=O)c1ccc(C(C)(C)O)c(F)c1 [Example 53, 2-(4-fluoro-2,6-diisopropylphenyl)-N-(3-fluoro-4-(2-hydroxypropan-2-yl)phenylsulfonyl)acetamide] | 
5 | 1 to 5 | CC(C)c1cc(F)cc(C(C)C)c1CC(=O)NS(=O)(=O)c1ccc(C(C)(C)O)c(CO)c1 [Example 94, 2-(4-fluoro-2,6-diisopropylphenyl)-N-(3-(hydroxymethyl)-4-(2-hydroxypropan-2-yl)phenylsulfonyl)acetamide] | 
6 | 1 to 5 | CC(C)c1cc(F)cc(C(C)C)c1CC(=O)NS(=O)(=O)c1cccc(C(C)(C)O)c1 [Example 25, 2-(4-fluoro-2,6-diisopropylphenyl)-N-(3-(2-hydroxypropan-2-yl)phenylsulfonyl)acetamide] | 
7 | 1 to 5 | CC(C)c1cc(F)cc(C(C)C)c1CC(=O)NS(=O)(=O)c1cc(C(C)(C)O)ccc1F [Example 52, 2-(4-fluoro-2,6-diisopropylphenyl)-N-(2-fluoro-5-(2-hydroxypropan-2-yl)phenylsulfonyl)acetamide] | 
8 | 1 to 5 | CC(C)c1cc(F)cc(C(C)C)c1CC(=O)NS(=O)(=O)c1ccc(C(C)(C)O)cc1 [Example 34, 2-(4-fluoro-2,6-diisopropylphenyl)-N-(4-(2-hydroxypropan-2-yl)phenylsulfonyl)acetamide] | 
9 | 1 to 5 | Cc1cc(S(=O)(=O)NC(=O)Cc2c(C(C)C)cc(F)cc2C(C)C)ccc1C(C)(C)O [Example 47, 2-(4-fluoro-2,6-diisopropylphenyl)-N-(4-(2-hydroxypropan-2-yl)-3-methylphenylsulfonyl)acetamide] | 

The remaining lines, values behind:

Row | Structure (SMILES) | IC50 [1] [µM] | also measured
10 | CC(C)c1cc(F)cc(C(C)C)c1CC(=O)NS(=O)(=O)c1cnc(C(C)(C)O)s1 [Example 75, 2-(4-fluoro-2,6-diisopropylphenyl)-N-(2-(2-hydroxypropan-2-yl)thiazol-5-ylsulfonyl)acetamide] | < 1 | 
11 | CC(C)c1cc(F)cc(C(C)C)c1CC(=O)NS(=O)(=O)c1cccc(CN(C)C)c1 [Compound 215] |  | IC50 [2]: 5 to 15 µM
12 | CC(C)c1cccc(C(C)C)c1CC(=O)NS(=O)(=O)c1cc(C(C)(C)O)cs1 [Example 8, 2-(2,6-diisopropylphenyl)-N-(4-(2-hydroxypropan-2-yl)thiophen-2-ylsulfonyl)acetamide] | < 1 | 
13 | CC(C)c1cccc(C(C)C)c1CC(=O)NS(=O)(=O)c1cc(C(C)(C)O)cc(C(C)(C)O)c1 [Example 24, N-(3,5-bis(2-hydroxypropan-2-yl)phenylsulfonyl)-2-(2,6-diisopropylphenyl)acetamide] | 15 to 60 | 
14 | COc1c(Cl)cc(Cl)cc1CC(=O)NS(=O)(=O)c1ncc(C(C)(C)O)s1 [Example 88, 2-(3,5-dichloro-2-methoxyphenyl)-N-(5-(2-hydroxypropan-2-yl)thiazol-2-ylsulfonyl)acetamide] | 15 to 60 | 
15 | CC(C)c1cc(F)cc(C(C)C)c1CC(=O)NS(=O)(=O)c1ncc(CO)s1 [Example 91, 2-(4-Fluoro-2,6-diisopropylphenyl)-N-(5-(hydroxymethyl)thiazol-2-ylsulfonyl)acetamide] | 15 to 60 | 
16 | CC(C)c1cc(F)cc(C(C)C)c1CC(=O)NS(=O)(=O)c1ncc(C(C)(C)CO)s1 [Example 4, 2-(4-Fluoro-2,6-diisopropylphenyl)-N-(5-(1-hydroxy-2-methylpropan-2-yl)thiazol-2-ylsulfonyl)acetamide] | 5 to 15 | 
17 | CC(C)c1cc(F)cc(C(C)C)c1CC(=O)NS(=O)(=O)c1ncc(CN(C)C)s1 [Compound 213] |  | IC50 [2]: 5 to 15 µM
18 | CC(C)c1cccc(C(C)C)c1CC(=O)NS(=O)(=O)c1ncc(C(C)(C)O)s1 [Example 2, 2-(2,6-Diisopropylphenyl)-N-(5-(2-hydroxypropan-2-yl)thiazol-2-ylsulfonyl)acetamide] | 1 to 5 | 
19 | CC(C)c1cc(F)cc(C(C)C)c1CC(=O)NS(=O)(=O)c1cc(C2(C)OCCO2)ccc1F [Example 56, 2-(4-fluoro-2,6-diisopropylphenyl)-N-(2-fluoro-5-(2-methyl-1,3-dioxolan-2-yl)phenylsulfonyl)acetamide] | < 1 | 
20 | CC(C)c1cc(C(F)(F)F)cc(C(C)C)c1CC(=O)NS(=O)(=O)c1ncc(C(C)(C)O)s1 [Example 72, 2-(2,6-diisopropyl-4-(trifluoromethyl)phenyl)-N-(5-(2-hydroxypropan-2-yl)thiazol-2-ylsulfonyl)acetamide] | 1 to 5 | 
21 | CC(C)c1cc(C#N)cc(C(C)C)c1CC(=O)NS(=O)(=O)c1nc(C(C)(C)O)cs1 [Example 82, 2-(4-cyano-2,6-diisopropylphenyl)-N-(4-(2-hydroxypropan-2-yl)thiazol-2-ylsulfonyl)acetamide] | 15 to 60 | 
22 | CC(C)c1cc(C#N)cc(C(C)C)c1CC(=O)NS(=O)(=O)c1cccc(C(C)(C)O)c1 [Example 26, 2-(4-cyano-2,6-diisopropylphenyl)-N-(3-(2-hydroxypropan-2-yl)phenylsulfonyl)acetamide] | 1 to 5 | 
23 | CC(C)(O)c1cnc(S(=O)(=O)NC(=O)Cc2c3c(cc4c2CCC4)CCC3)s1 [Example 3, 2-(1,2,3,5,6,7-Hexahydros-indacen-4-yl)-N-(5-(2-hydroxypropan-2-yl)thiazol-2-ylsulfonyl)acetamide] | 15 to 60 | 
24 | CC(C)c1cc(F)cc(C(C)C)c1CC(=O)NS(=O)(=O)c1ccc(S(F)(F)(F)(F)F)cc1 [Example 39] |  | IC50 (Table 12, by Example #): 15 to 60 µM
25 | CC(C)c1cc(C#N)cc(C(C)C)c1CC(=O)NS(=O)(=O)c1ncc(C(C)(C)O)s1 [Example 6, 2-(4-cyano-2,6-diisopropylphenyl)-N-(5-(2-hydroxypropan-2-yl)thiazol-2-ylsulfonyl)acetamide] | 1 to 5 | 
26 | CC(C)c1cc(C#N)cc(C(C)C)c1CC(=O)NS(=O)(=O)c1cc(C(C)(C)O)n(-c2ccccc2)n1 [Example 65, 2-(4-cyano-2,6-diisopropylphenyl)-N-(5-(2-hydroxypropan-2-yl)-1-phenyl-1H-pyrazol-3-ylsulfonyl)acetamide] | 5 to 15 | 
27 | CC(C)c1cccc(C(C)C)c1CC(=O)NS(=O)(=O)c1cc(C2(O)CC2)cs1 [Example 14, 2-(2,6-diisopropylphenyl)-N-(4-(1-hydroxycyclopropyl)thiophen-2-ylsulfonyl)acetamide] | 1 to 5 | 
28 | CC(C)c1ccc(F)c(C(C)C)c1CC(=O)NS(=O)(=O)c1cccc(C(C)(C)O)c1 [Example 42, 2-(3-fluoro-2,6-diisopropylphenyl)-N-(3-(2-hydroxypropan-2-yl)phenylsulfonyl)acetamide] | 5 to 15 | 
29 | CC(C)c1cccc(C2CC2)c1CC(=O)NS(=O)(=O)c1ncc(C(C)(C)O)s1 [Example 80, 2-(2-cyclopropyl-6-isopropylphenyl)-N-(5-(2-hydroxypropan-2-yl)thiazol-2-ylsulfonyl)acetamide] | 5 to 15 | 
30 | CC1(c2ccc(F)c(S(=O)(=O)NC(=O)Cc3c4c(c(F)c5c3CCC5)CCC4)c2)OCCO1 [Example 57, 2-(8-fluoro-1,2,3,5,6,7-hexahydros-indacen-4-yl)-N-(2-fluoro-5-(2-methyl-1,3-dioxolan-2-yl)phenylsulfonyl)acetamide] | 15 to 60 | 
